Data on 48 molecules can be found in patent publication US20260035382A1, “COMPOUNDS AS SUMO ACTIVATING ENZYME INHIBITORS” (WIGEN BIOMEDICINE TECHNOLOGY (SHANGHAI) CO., LTD., priority 2022, published 2026).

SAE, sequence (Q9UBT2 whole entry): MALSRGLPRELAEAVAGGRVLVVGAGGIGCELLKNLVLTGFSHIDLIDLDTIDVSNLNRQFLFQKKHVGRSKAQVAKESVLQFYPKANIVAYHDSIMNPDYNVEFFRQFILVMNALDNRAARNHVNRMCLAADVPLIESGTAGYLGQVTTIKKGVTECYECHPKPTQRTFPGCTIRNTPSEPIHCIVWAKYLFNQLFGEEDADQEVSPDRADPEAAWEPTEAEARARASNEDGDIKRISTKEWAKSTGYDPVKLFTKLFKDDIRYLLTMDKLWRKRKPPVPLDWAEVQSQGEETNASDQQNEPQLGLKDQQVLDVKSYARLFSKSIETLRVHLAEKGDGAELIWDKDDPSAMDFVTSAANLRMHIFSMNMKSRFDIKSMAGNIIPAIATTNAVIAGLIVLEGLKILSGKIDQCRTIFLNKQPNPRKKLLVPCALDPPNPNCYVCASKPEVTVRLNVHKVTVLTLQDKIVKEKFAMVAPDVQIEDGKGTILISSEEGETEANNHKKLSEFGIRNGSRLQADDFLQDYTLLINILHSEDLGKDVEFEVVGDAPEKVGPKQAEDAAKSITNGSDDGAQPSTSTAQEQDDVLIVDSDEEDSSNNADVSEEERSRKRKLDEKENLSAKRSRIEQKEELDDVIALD
SAE, sequence (Q9UBE0 whole entry partner): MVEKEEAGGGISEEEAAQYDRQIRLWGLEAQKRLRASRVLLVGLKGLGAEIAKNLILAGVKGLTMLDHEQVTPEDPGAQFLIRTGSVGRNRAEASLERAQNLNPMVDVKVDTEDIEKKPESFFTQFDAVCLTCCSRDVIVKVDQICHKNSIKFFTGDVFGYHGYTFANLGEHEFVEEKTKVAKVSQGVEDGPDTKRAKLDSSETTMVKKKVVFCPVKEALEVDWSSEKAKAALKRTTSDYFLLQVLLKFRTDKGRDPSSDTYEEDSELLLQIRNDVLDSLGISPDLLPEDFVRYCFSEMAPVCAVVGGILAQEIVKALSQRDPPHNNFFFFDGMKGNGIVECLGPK

The first assay has as its target SAE (Homo sapiens (Human), UniProt Q9UBT2). Description: In vitro inhibitory activity assay against SAE (SUMO-2/3 immunofluorescence in HCT116 cells). The format is cell-based. As to conditions: 6 h incubation, class symbols, read-out: SUMO IF IC50. As to the method:
HCT116 cells were seeded into a 96-well black transparent bottom plate at about 20000/well with 90 μL per well. The cells were incubated at 37° C. overnight for 24 h. The test compounds were 10-fold diluted to give a final concentration, and 10 μL of the diluted compounds was added to each well of the cell culture plate. The mixture was incubated at 37° C. for 6 h. The cells were then washed gently, the culture medium was discarded, and the cells were washed once with 200 μL of 0.1% o PBST. 50 μL of 4% PFA was added to each well, and the cells were immobilized at room temperature for 20 min, and then washed with PBS 2-3 times. 50 μL of 0.2% o Triton X-100 was added to each well, and the cells were left to stand at room temperature for 15 min and washed with 0.1% PBST 3 times. 100 uL of 3% BSA (0.6 g BSA+20 mL PBS) was added to each well, and the mixture was blocked at 37° C. for 30 min. After the blocking was completed, the liquid was removed and a primary antibody (SUMO-2/3 (181H8) Rabbit mAb, 1:400 dilution) was prepared with […]. 30 μL of the diluted primary antibody was added to each well, and the mixture was incubated at 4° C. overnight. The cells were washed 3 times with 200 μL of 0.1% o PBST. A FITC secondary antibody (Fluorescein (FITC)-conjugated Affinipure Goat Anti-Rabbit IgG (H+L), 1:300 dilution) was further prepared with 1% o BSA, and 40 μL of the diluted secondary antibody was added to each well. The mixture was incubated at room temperature in the dark for 2 h, and then the cells were washed 4 times with 0.1% PBST. The fluorescence signal of the sample was detected and compared to the DMSO group, and the inhibition rate and IC50 were calculated.
`NS(=O)(=O)OC[C@H]1C[C@@H](Nc2ncncc2C(=O)c2cc3c(s2)CCCC32NCCc3ccccc32)C[C@@H]1O` (stereo partly drawn) [Compound 1]: the IC50 is 50 to 200 nM.
For the molecule `NS(=O)(=O)OC[C@H]1C[C@@H](Nc2ncncc2C(=O)c2cc3c(s2)CCC[C@@]32NCCc3ccccc32)C[C@@H]1O` [Compound 2], the IC50 was greater than 200 nM.
On the same count and under the same terms, in the case of `NS(=O)(=O)OC[C@H]1C[C@@H](Nc2ncncc2C(=O)c2cc3c(s2)CCC[C@]32NCCc3ccccc32)C[C@@H]1O` [Compound 3] it was no more than 50 nM; in that of `NS(=O)(=O)OC[C@H]1C[C@@H](Nc2ncncc2C(=O)c2cc3c(s2)CCCC32NCCc3ccc(Cl)cc32)C[C@@H]1O` (stereo partly drawn) [Compound 4], no more than 50 nM.
`NS(=O)(=O)OC[C@H]1C[C@@H](Nc2ncncc2C(=O)c2cc3c(s2)CCCC32NCCc3ccc(F)cc32)C[C@@H]1O` (stereo partly drawn) [Compound 7]: the concentration for half-maximal inhibition (IC50) lay in the range of 50 to 200 nM.
On to `N#Cc1ccc2c(c1)C1(CCCc3sc(C(=O)c4cncnc4N[C@@H]4C[C@H](COS(N)(=O)=O)[C@@H](O)C4)cc31)NCC2` (stereo partly drawn) [Compound 10], for which the IC50 is 50 to 200 nM.
Same read-out and setting: in the case of `N#Cc1ccc2c(c1)[C@]1(CCCc3sc(C(=O)c4cncnc4N[C@@H]4C[C@H](COS(N)(=O)=O)[C@@H](O)C4)cc31)NCC2` [Compound 11] it was greater than 200 nM; in that of `N#Cc1ccc2c(c1)[C@@]1(CCCc3sc(C(=O)c4cncnc4N[C@@H]4C[C@H](COS(N)(=O)=O)[C@@H](O)C4)cc31)NCC2` [Compound 12], no more than 50 nM; in that of `NS(=O)(=O)OC[C@H]1C[C@@H](Nc2ncncc2C(=O)c2cc3c(s2)COCC32NCCc3ccccc32)C[C@@H]1O` (stereo partly drawn) [Compound 13], greater than 200 nM.
Take `NS(=O)(=O)OC[C@H]1C[C@@H](Nc2ncncc2C(=O)c2cc3c(s2)COC[C@@]32NCCc3ccccc32)C[C@@H]1O` [Compound 14]: the 50% inhibitory concentration (IC50) is greater than 200 nM.
Take `NS(=O)(=O)OC[C@H]1C[C@@H](Nc2ncncc2C(=O)c2cc3c(s2)COC[C@]32NCCc3ccccc32)C[C@@H]1O` [Compound 15]: the IC50 is 50 to 200 nM.
On the same count and under the same terms, to `NS(=O)(=O)OC[C@H]1C[C@@H](Nc2ncncc2C(=O)c2cc3c(s2)COCC32NCCc3ccc(F)cc32)C[C@@H]1O` (stereo partly drawn) [Compound 16] belongs 50 to 200 nM.
Same read-out and setting: in the case of `NS(=O)(=O)OC[C@H]1C[C@@H](Nc2ncncc2C(=O)c2cc3c(s2)COCC32NCCc3ccc(Cl)cc32)C[C@@H]1O` (stereo partly drawn) [Compound 19] it was 50 to 200 nM.
Turning to `Cc1ccc2c(c1)C1(CCCc3sc(C(=O)c4cncnc4N[C@@H]4C[C@H](COS(N)(=O)=O)[C@@H](O)C4)cc31)NCC2` (stereo partly drawn) [Compound 22], the IC50 lay within 50 to 200 nM.
For the molecule `NS(=O)(=O)OC[C@H]1C[C@@H](Nc2ncncc2C(=O)c2cc3c(s2)CCCC32NCCc3ccc(C4CC4)cc32)C[C@@H]1O` (stereo partly drawn) [Compound 23], the 50% inhibitory concentration (IC50) lay within 50 to 200 nM.
Consider `COc1ccc2c(c1)C1(CCCc3sc(C(=O)c4cncnc4N[C@@H]4C[C@H](COS(N)(=O)=O)[C@@H](O)C4)cc31)NCC2` (stereo partly drawn) [Compound 24], for which the IC50 is greater than 200 nM.
`NS(=O)(=O)OC[C@H]1C[C@@H](Nc2ncncc2C(=O)c2cc3c(s2)CCCC32NCCc3ccc(C(F)(F)F)cc32)C[C@@H]1O` (stereo partly drawn) [Compound 25]: the IC50 was in the range of 50 to 200 nM.
Regarding `NS(=O)(=O)OC[C@H]1C[C@@H](Nc2ncncc2C(=O)c2cc3c(s2)CCCC32NCCc3cc(F)c(F)cc32)C[C@@H]1O` (stereo partly drawn) [Compound 26], the half-inhibitory concentration (IC50) was 50 to 200 nM.
For the molecule `NS(=O)(=O)OC[C@H]1C[C@@H](Nc2ncncc2C(=O)c2cc3c(s2)CCCC32NCCc3cc(F)c(Cl)cc32)C[C@@H]1O` (stereo partly drawn) [Compound 27], the IC50 was no more than 50 nM.
Regarding `NS(=O)(=O)OC[C@H]1C[C@@H](Nc2ncncc2C(=O)c2cc3c(s2)CCCC32NCCc3cc(Cl)c(Cl)cc32)C[C@@H]1O` (stereo partly drawn) [Compound 28], the IC50 lay in the range of 50 to 200 nM.
Turning to `Cc1cc2c(cc1Cl)C1(CCCc3sc(C(=O)c4cncnc4N[C@@H]4C[C@H](COS(N)(=O)=O)[C@@H](O)C4)cc31)NCC2` (stereo partly drawn) [Compound 29], the IC50 was in the range of 50 to 200 nM.
Turning to `N#Cc1cc2c(cc1Cl)C1(CCCc3sc(C(=O)c4cncnc4N[C@@H]4C[C@H](COS(N)(=O)=O)[C@@H](O)C4)cc31)NCC2` (stereo partly drawn) [Compound 30], the half-maximal inhibitory concentration (IC50) lay within 50 to 200 nM.
On the same count and under the same terms, to `COc1cc2c(cc1Cl)C1(CCCc3sc(C(=O)c4cncnc4N[C@@H]4C[C@H](COS(N)(=O)=O)[C@@H](O)C4)cc31)NCC2` (stereo partly drawn) [Compound 31] belongs 50 to 200 nM.
As for `NS(=O)(=O)OC[C@H]1C[C@@H](Nc2ncncc2C(=O)c2cc3c(s2)CCCC32NCCc3cc(F)c(Cl)c(F)c32)C[C@@H]1O` (stereo partly drawn) [Compound 32], the IC50 lay within 50 to 200 nM.
Consider `NS(=O)(=O)OC[C@H]1C[C@@H](Nc2ncncc2C(=O)c2cc3c(s2)CCCC32NCCc3cc(Cl)c(F)cc32)C[C@@H]1O` (stereo partly drawn) [Compound 33], for which the IC50 lay in the range of 50 to 200 nM.
For the molecule `NS(=O)(=O)OC[C@H]1C[C@@H](Nc2ncncc2C(=O)c2cc3c(s2)CCCC32NCCc3ccncc32)C[C@@H]1O` (stereo partly drawn) [Compound 34], the concentration for half-maximal inhibition (IC50) was in the range of 50 to 200 nM.
As for `NS(=O)(=O)OC[C@H]1C[C@@H](Nc2ncncc2C(=O)c2cc3c(s2)CCCC32NCCc3cc(Cl)ncc32)C[C@@H]1O` (stereo partly drawn) [Compound 35], the IC50 lay within 50 to 200 nM.
Still for that read-out and setting: in the case of `NS(=O)(=O)OC[C@H]1C[C@@H](Nc2ncncc2C(=O)c2cc3c(s2)C=CCC32NCCc3ccc(Cl)cc32)C[C@@H]1O` (stereo partly drawn) [Compound 36] it was no more than 50 nM.
On to `NS(=O)(=O)OC[C@H]1C[C@@H](Nc2ncncc2C(=O)c2cc3c(s2)CC=CC32NCCc3ccc(Cl)cc32)C[C@@H]1O` (stereo partly drawn) [Compound 37], for which the IC50 is no more than 50 nM.
Consider `NS(=O)(=O)OC[C@H]1C[C@@H](Nc2ncncc2C(=O)c2cc3c(s2)OCCC32NCCc3ccc(Cl)cc32)C[C@@H]1O` (stereo partly drawn) [Compound 38], for which the IC50 fell in the range of 50 to 200 nM.
On to `NS(=O)(=O)OC[C@H]1C[C@@H](Nc2ncncc2C(=O)c2cc3c(s2)CCCC32NCC3(CC3)c3ccc(Cl)cc32)C[C@@H]1O` (stereo partly drawn) [Compound 39], for which the IC50 is 50 to 200 nM.
On to `NS(=O)(=O)OC[C@H]1C[C@@H](Nc2ncncc2C(=O)c2cc3c(s2)CCCC32NC3(CC3)Cc3ccc(Cl)cc32)C[C@@H]1O` (stereo partly drawn) [Compound 40], for which the IC50 lay in the range of 50 to 200 nM.
Take `NS(=O)(=O)OC[C@H]1C[C@@H](Nc2ncncc2C(=O)c2cc3c(s2)CCCC32NCC(=O)c3ccc(Cl)cc32)C[C@@H]1O` (stereo partly drawn) [Compound 41]: the concentration for half-maximal inhibition (IC50) lay within 50 to 200 nM.
For the molecule `NS(=O)(=O)OC[C@H]1C[C@@H](Nc2ncncc2C(=O)c2cc3c(s2)CCCC32OCCc3ccc(Cl)cc32)C[C@@H]1O` (stereo partly drawn) [Compound 42], the IC50 is no more than 50 nM.
Turning to `NS(=O)(=O)OC[C@H]1C[C@@H](Nc2ncncc2C(=O)c2cc3c(s2)CCC32NCCc3ccccc32)C[C@@H]1O` (stereo partly drawn) [Compound 43], the IC50 is greater than 200 nM.
On to `NS(=O)(=O)OC[C@H]1C[C@@H](Nc2ncncc2C(=O)c2cc3c(s2)CCC32NCCc3ccc(Cl)cc32)C[C@@H]1O` (stereo partly drawn) [Compound 46], for which the IC50 fell in the range of 50 to 200 nM.
On to `NS(=O)(=O)OC[C@H]1C[C@@H](Nc2ncncc2C(=O)c2cc3c(s2)CCC32NCCc3ccc(F)cc32)C[C@@H]1O` (stereo partly drawn) [Compound 49], for which the IC50 is 50 to 200 nM.
In the case of `N#Cc1ccc2c(c1)C1(CCc3sc(C(=O)c4cncnc4N[C@@H]4C[C@H](COS(N)(=O)=O)[C@@H](O)C4)cc31)NCC2` (stereo partly drawn) [Compound 52], the concentration for half-maximal inhibition (IC50) fell in the range of 50 to 200 nM.

Staying with this assay, now noted: 6 h incubation, numeric values, read-out: SUMO IF IC50.
Turning to `NS(=O)(=O)OC[C@H]1C[C@@H](Nc2ncncc2C(=O)c2cc3c(s2)CCC[C@@]32NCCc3ccc(Cl)cc32)C[C@@H]1O` [Compound 5], the IC50 is greater than 1000 nM.
Regarding `NS(=O)(=O)OC[C@H]1C[C@@H](Nc2ncncc2C(=O)c2cc3c(s2)CCC[C@@]32NCCc3ccc(F)cc32)C[C@@H]1O` [Compound 8], the IC50 is greater than 1000 nM.
Regarding `NS(=O)(=O)OC[C@H]1C[C@@H](Nc2ncncc2C(=O)c2cc3c(s2)COC[C@@]32NCCc3ccc(F)cc32)C[C@@H]1O` [Compound 17], the IC50 was greater than 1000 nM.
Take `NS(=O)(=O)OC[C@H]1C[C@@H](Nc2ncncc2C(=O)c2cc3c(s2)COC[C@]32NCCc3ccc(F)cc32)C[C@@H]1O` [Compound 18]: the IC50 stood at 104 nM.
For the molecule `NS(=O)(=O)OC[C@H]1C[C@@H](Nc2ncncc2C(=O)c2cc3c(s2)COC[C@@]32NCCc3ccc(Cl)cc32)C[C@@H]1O` [Compound 20], the IC50 was greater than 1000 nM.
`NS(=O)(=O)OC[C@H]1C[C@@H](Nc2ncncc2C(=O)c2cc3c(s2)CC[C@@]32NCCc3ccccc32)C[C@@H]1O` [Compound 44]: the IC50 is greater than 1000 nM.
As to `NS(=O)(=O)OC[C@H]1C[C@@H](Nc2ncncc2C(=O)c2cc3c(s2)CC[C@]32NCCc3ccccc32)C[C@@H]1O` [Compound 45], the IC50 came out at 125 nM.
On the same count and under the same terms, to `NS(=O)(=O)OC[C@H]1C[C@@H](Nc2ncncc2C(=O)c2cc3c(s2)CC[C@@]32NCCc3ccc(Cl)cc32)C[C@@H]1O` [Compound 47] belongs greater than 1000 nM; to `NS(=O)(=O)OC[C@H]1C[C@@H](Nc2ncncc2C(=O)c2cc3c(s2)CC[C@@]32NCCc3ccc(F)cc32)C[C@@H]1O` [Compound 50], greater than 1000 nM; to `NS(=O)(=O)OC[C@H]1C[C@@H](Nc2ncncc2C(=O)c2cc3c(s2)CC[C@]32NCCc3ccc(F)cc32)C[C@@H]1O` [Compound 51], 50.7 nM.

What is called IC50 is the concentration that gives 50% inhibition.
